Laboratory results: patent US10059717B2, “Urea compounds containing 3,4-dihydropyrimido[4,5-D]pyrimidin-2(1H)-one skeleton as protein kinase inhibitors” (KOREA INSTITUTE OF SCIENCE AND TECHNOLOGY, priority 2016, dated 2018)

Key:
Assay in all cases: Kinase panel biochemical assay
Settings in all cases: 1 μM single concentration, read-out: % residual enzyme activity
PKAcg = PKAcg (Homo sapiens, UniProt P22612)
Method: (§1) In order to measure the protein kinase inhibitory activity (% inhibition) of the compounds of the present invention, biochemical assays were performed on the full kinase panel listed in the following Table 1.
(§2) As an test compound, 1-(3-(7-((6-(4-ethylpiperazine-1-carbonyl)pyridin-3-yl)amino)-1-methyl-2-oxo-1,4-dihydropyrimido[4,5-d]pyrimidin-3(2H)-yl)-4-methylphenyl)-3-(2-methoxyphenyl)urea (Compound No. 14) was used. The kinase inhibitory efficacy was measured upon treatment with a 1 μM single concentration of the test compound to calculate % residual enzyme activity value.
(§3) ABL1, FGFR2, TAOK2/TAO1, EPHA5, EPHB2, EPHB3, RET, LYN B, EPHA2, FRK/PTK5, EPHA8, LCK, EPHB4, FYN, KHS/MAP4K5, DDR1, EPHA3, P38a/MAPK14, EPHA4, FMS, EPHB1, HCK, FGFR1, ABL2/ARG, EPHA6, c-Src, ACK1, FLT4NEGFR3, ERBB4/HER4, DDR2, KDRNEGFR2, LYN, ZAK/MLTK, YES/YES1, BLK, FGR, MLCK2/MYLK2, TAOK1, BMX/ETK, BTK, EPHA1, JAK1, P38b/MAPK11, TIE2/TEK, FLT1NEGFR1, TXK, SRMS, RAF1, SIK1, MLK3/MAP3K11, PEAK1, TRKA, EPHA7, GLK/MAP4K3, MLK2/MAP3K10, TEC, CSK, TRKC, FES/FPS, SIK2, FGFR3, BRK, YSK4/MAP3K19, ARAF, PDGFRb, TNK1, GCK/MAP4K2, PDGFRa, TNIK, TAK1, ERBB2/HER2, LIMK1, HIPK4, FER, EGFR, JAK2, HPK1/MAP4K1, TRKB, RIPK3, LOK/STK10, LIMK2, MLK1/MAP3K9, BRAF, MEKK3, MEK5, STK32B/YANK2, FGFR4, MEKK2, SLK/STK2, FLT3, PKAcg, TAOK3/JIK, TYRO3/SKY, SIK3, IR, LRRK2, PYK2, NEK11, p70S6K/RPS6KB1, LATS2.

TNK1 = TNK1 (Homo sapiens, UniProt Q13470)
Method: as §1, §2, §3

FLT4NEGFR3 = FLT4NEGFR3 (Homo sapiens, UniProt P35916)
Method: as §1, §2, §3

FRK/PTK5 = FRK/PTK5 (Homo sapiens, UniProt P42685)
Method: as §1, §2, §3

FGFR2 = FGFR2 (Homo sapiens, UniProt P21802)
Chain of FGFR2 (P21802 22-821): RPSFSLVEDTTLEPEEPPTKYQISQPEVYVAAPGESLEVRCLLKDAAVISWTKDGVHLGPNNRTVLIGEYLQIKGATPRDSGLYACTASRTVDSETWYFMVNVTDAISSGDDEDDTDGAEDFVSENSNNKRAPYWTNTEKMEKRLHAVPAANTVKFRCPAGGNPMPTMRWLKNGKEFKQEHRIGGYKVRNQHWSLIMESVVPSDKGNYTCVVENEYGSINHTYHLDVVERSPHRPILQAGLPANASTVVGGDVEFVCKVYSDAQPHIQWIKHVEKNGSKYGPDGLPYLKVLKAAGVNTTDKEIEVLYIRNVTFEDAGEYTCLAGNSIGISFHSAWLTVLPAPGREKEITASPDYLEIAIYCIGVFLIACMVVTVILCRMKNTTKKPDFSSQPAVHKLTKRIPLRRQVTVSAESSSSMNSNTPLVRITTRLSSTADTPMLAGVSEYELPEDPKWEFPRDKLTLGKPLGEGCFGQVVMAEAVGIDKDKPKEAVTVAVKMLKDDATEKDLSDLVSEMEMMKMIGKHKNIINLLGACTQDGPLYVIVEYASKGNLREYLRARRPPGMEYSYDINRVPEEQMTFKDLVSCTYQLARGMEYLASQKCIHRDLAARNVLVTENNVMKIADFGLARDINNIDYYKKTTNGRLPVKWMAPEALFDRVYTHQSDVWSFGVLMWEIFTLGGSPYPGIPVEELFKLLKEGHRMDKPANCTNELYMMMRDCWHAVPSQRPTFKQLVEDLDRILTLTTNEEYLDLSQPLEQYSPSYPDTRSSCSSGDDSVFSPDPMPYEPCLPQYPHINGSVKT
Method: as §1, §2, §3

TAOK2/TAO1 = TAOK2/TAO1 (Homo sapiens, UniProt Q9UL54)
Method: as §1, §2, §3

EGFR = EGFR (Homo sapiens, UniProt P00533)
Method: as §1, §2, §3

TNIK = TNIK (Homo sapiens, UniProt Q9UKE5)
Method: as §1, §2, §3

SIK1 = SIK1 (Homo sapiens, UniProt P57059)
Method: as §1, §2, §3

c-Src = c-Src (Homo sapiens, UniProt P12931)
Method: as §1, §2, §3

PDGFRb = PDGFRb (Homo sapiens, UniProt P09619)
Method: as §1, §2, §3

FER = FER (Homo sapiens, UniProt P16591)
Chain of FER (P16591 whole entry): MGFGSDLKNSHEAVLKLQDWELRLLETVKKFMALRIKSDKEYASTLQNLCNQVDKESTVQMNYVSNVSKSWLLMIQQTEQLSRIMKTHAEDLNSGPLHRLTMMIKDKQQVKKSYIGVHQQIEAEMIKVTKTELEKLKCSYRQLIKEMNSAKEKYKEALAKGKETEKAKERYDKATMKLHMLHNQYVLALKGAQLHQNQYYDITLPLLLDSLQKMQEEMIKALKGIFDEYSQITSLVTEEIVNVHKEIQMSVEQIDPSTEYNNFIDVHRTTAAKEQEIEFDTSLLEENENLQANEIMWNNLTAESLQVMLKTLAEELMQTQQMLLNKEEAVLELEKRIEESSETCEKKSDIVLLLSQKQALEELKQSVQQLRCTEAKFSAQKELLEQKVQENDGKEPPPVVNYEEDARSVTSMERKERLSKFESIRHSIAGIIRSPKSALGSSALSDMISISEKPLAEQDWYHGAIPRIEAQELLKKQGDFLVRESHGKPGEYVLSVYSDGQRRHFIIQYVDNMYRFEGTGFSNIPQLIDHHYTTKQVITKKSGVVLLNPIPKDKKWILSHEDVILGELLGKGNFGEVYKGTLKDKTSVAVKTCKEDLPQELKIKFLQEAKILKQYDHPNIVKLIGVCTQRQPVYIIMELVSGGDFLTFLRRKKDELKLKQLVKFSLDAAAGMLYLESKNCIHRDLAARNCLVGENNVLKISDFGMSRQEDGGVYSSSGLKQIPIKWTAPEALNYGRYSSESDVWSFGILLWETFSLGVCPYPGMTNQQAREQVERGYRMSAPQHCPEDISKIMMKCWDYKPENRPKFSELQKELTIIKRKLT
Method: as §1, §2, §3

EPHA2 = EPHA2 (Homo sapiens, UniProt P29317)
Chain of EPHA2 (P29317 24-976): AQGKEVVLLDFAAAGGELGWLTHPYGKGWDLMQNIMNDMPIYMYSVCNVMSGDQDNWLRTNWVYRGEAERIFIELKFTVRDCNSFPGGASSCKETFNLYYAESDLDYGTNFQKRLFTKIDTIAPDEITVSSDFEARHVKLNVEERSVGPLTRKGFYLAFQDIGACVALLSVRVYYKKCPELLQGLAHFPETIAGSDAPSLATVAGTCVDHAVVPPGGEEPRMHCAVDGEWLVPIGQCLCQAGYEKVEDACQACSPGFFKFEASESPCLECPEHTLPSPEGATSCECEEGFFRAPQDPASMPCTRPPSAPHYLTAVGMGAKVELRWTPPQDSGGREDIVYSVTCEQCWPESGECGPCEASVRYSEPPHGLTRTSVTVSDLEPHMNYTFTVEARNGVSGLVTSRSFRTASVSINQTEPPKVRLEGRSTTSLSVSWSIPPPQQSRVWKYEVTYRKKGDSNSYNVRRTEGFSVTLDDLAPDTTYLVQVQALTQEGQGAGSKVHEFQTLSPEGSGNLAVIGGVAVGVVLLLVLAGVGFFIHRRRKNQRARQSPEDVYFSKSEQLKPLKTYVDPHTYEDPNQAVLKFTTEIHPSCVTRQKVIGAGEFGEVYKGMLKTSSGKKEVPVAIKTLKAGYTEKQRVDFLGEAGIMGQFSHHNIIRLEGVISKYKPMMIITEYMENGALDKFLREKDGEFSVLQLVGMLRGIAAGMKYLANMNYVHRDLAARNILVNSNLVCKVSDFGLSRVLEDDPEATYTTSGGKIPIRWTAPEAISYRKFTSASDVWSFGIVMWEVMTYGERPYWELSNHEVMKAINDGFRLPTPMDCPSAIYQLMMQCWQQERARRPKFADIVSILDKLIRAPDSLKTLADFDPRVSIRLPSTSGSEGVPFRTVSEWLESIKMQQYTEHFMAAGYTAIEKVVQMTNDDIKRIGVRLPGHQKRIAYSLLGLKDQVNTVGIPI
Method: as §1, §2, §3

EPHA6 = EPHA6 (Homo sapiens, UniProt Q9UF33)
Method: as §1, §2, §3

P38b/MAPK11 = P38b/MAPK11 (Homo sapiens, UniProt Q15759)
Method: as §1, §2, §3

GCK/MAP4K2 = GCK/MAP4K2 (Homo sapiens, UniProt Q12851)
Method: as §1, §2, §3

FLT3 = FLT3 (Homo sapiens, UniProt P36888)
Chain of FLT3 (P36888 27-993): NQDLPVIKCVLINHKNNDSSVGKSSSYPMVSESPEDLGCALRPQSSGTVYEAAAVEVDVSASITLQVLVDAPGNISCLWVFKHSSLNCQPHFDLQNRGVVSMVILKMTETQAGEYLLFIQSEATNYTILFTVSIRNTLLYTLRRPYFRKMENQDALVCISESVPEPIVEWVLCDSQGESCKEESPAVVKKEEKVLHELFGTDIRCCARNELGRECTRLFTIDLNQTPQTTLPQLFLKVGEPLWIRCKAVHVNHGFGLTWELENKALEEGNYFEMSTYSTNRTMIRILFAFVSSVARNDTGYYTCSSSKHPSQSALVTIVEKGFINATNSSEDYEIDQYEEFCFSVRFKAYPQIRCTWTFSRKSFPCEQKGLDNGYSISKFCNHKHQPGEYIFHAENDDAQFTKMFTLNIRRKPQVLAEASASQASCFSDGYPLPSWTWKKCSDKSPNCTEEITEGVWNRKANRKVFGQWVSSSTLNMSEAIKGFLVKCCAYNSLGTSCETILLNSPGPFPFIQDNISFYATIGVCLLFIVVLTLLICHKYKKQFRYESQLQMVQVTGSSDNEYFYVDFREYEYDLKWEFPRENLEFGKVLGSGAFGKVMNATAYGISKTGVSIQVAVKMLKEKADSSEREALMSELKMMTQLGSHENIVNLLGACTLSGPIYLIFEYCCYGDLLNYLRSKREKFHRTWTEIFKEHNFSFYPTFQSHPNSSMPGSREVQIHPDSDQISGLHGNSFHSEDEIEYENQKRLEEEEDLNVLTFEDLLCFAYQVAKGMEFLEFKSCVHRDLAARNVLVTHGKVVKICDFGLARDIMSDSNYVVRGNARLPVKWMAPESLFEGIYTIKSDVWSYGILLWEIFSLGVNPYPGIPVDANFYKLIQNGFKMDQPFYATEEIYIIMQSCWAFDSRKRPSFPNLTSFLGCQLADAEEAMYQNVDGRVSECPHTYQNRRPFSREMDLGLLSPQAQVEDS
Method: as §1, §2, §3

MEKK2 = MEKK2 (Homo sapiens, UniProt Q9Y2U5)
Method: as §1, §2, §3

DDR2 = DDR2 (Homo sapiens, UniProt Q16832)
Method: as §1, §2, §3

BLK = BLK (Homo sapiens, UniProt P51451)
Method: as §1, §2, §3

TRKC = TRKC (Homo sapiens, UniProt Q16288)
Method: as §1, §2, §3

JAK1 = JAK1 (Homo sapiens, UniProt P23458)
Method: as §1, §2, §3

HPK1/MAP4K1 = HPK1/MAP4K1 (Homo sapiens, UniProt Q92918)
Method: as §1, §2, §3

TRKA = TRKA (Homo sapiens, UniProt P04629)
Chain of TRKA (P04629 33-796): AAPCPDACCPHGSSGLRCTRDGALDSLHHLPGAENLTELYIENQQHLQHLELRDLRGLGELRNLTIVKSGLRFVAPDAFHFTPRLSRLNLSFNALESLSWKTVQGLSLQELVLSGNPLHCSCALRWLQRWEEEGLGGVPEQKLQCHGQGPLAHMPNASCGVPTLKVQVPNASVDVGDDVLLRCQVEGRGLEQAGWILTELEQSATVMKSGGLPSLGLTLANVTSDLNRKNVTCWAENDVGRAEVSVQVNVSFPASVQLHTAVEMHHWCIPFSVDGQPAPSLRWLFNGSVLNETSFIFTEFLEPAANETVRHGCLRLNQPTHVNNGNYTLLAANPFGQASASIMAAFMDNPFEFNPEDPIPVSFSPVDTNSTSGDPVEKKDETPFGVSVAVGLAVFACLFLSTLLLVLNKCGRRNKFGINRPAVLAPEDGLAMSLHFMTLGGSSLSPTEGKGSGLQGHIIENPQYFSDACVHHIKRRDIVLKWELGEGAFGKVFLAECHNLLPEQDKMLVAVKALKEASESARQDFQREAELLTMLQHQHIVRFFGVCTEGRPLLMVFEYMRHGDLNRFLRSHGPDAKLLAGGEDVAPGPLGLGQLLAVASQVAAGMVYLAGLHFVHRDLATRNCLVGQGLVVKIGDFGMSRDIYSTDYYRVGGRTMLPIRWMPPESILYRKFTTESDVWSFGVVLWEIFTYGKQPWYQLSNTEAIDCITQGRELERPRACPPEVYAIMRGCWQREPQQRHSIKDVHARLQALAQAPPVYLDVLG
Method: as §1, §2, §3

JAK2 = JAK2 (Homo sapiens, UniProt O60674)
Method: as §1, §2, §3

LYN B = LYN B (Homo sapiens, UniProt P07948)
Chain of LYN B (P07948 1-491 isoform P07948-2): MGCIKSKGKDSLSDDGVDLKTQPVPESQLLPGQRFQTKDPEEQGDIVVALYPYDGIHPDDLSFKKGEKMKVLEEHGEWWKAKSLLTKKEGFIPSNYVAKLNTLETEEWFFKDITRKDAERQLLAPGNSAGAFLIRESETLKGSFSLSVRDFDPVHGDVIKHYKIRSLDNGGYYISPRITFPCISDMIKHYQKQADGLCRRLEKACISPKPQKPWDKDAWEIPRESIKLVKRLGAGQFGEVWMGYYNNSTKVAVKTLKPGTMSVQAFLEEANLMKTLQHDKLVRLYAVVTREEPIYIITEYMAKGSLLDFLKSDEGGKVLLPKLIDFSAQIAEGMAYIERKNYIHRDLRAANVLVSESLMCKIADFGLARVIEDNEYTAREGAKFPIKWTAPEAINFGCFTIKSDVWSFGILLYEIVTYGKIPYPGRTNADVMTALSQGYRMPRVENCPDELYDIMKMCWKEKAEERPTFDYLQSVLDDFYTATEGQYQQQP
Method: as §1, §2, §3

LOK/STK10 = LOK/STK10 (Homo sapiens, UniProt O94804)
Method: as §1, §2, §3

FGFR1 = FGFR1 (Homo sapiens, UniProt P11362)
Method: as §1, §2, §3

ABL2/ARG = ABL2/ARG (Homo sapiens, UniProt P42684)
Method: as §1, §2, §3

GLK/MAP4K3 = GLK/MAP4K3 (Homo sapiens, UniProt Q8IVH8)
Method: as §1, §2, §3

LRRK2 = LRRK2 (Homo sapiens, UniProt Q5S007)
Method: as §1, §2, §3

Measured: remaining activity at 1 µM

CCN1CCN(C(=O)c2ccc(Nc3ncc4c(n3)N(C)C(=O)N(c3cc(NC(=O)Nc5ccccc5OC)ccc3C)C4)cn2)CC1 [Compound No. 14, 1-(3-(7-((6-(4-ethylpiperazin-1-carbonyl)pyridin-3-yl)amino)-1-methyl-2-oxo-1,4-dihydropyrimido[4,5-d]pyrimidin-3(2H)-yl)-4-methylphenyl)-3-(2-methoxyphenyl)urea]
≤ 30%: all assays above
